Key:
[1] = molecular target: IL-17A(FLAG-Tagged): IL-17RA(His-Tagged) (Homo sapiens, UniProt Q16552, K93Q); assay: IL-17A(FLAG-Tagged): IL-17RA(His-Tagged) Binding Disruption Eu-HTRF Assay; conditions: IL-17A/IL-17RA binding disruption, simple average if tested more than once
Description: IL-17A(FLAG-Tagged): IL-17RA(His-Tagged) Binding Disruption Eu-HTRF Assay
An antibody directed against the FLAG tag of IL-17A (SEQ ID NO:1) is labeled with the HTRF donor chromophore (Europium-cryptate). IL-17A is present as a dimer that is “locked into” this quaternary structure due to the formation of loop-spanning […] disulfide bridges. The construct of IL-17RA used in the assay excludes the […] portion of the receptor and is fused to a C-terminal 10×His tag (SEQ ID NO:2). An antibody directed against the His tag of the IL-17RA chimera is labeled with the HTRF acceptor chromophore (“D2”). The fluorescence-resonance energy transfer (FRET) depends on the vicinity of the donor chromophore to the acceptor, and interruption of the binding between the IL-17A and IL-17RA causes the reduction/loss of FRET. Therefore, this assay allows to evaluate the compound effect on the binding IL-17A and IL-17RA by monitoring the fluorescence intensity of donor vs acceptor. The assay is run as described below.
40 nl of 2-fold serial diluted compound solution for total 22 dilution points is added into each well of a 1536-well, white, low-volume, non-binding plate (Greiner #782904), then 2 μl of FLAG tagged IL-17A at 2× final concentration (2.5 nM) in solution of PBS+0.01% Triton-X100 is added to each well. The assay plate is briefly centrifuged then incubated for 1 h at rt. A mixed solution is prepared containing 2×5 nM 10HIS×IL-17RA, 2×2.5 nM Eu-anti-FLAG (CISBIO), 2×5 nM D2-anti-HIS (CISBIO) in PBS+0.01% Triton-X100+200 mM Potassium Fluoride (Sigma 60238) and 2 μl of mix is added to each well of the assay plate. The plate is briefly centrifuged then incubated for 2 h at rt. The HTRF intensities at the wavelength of donor (620 nm) and acceptor (665 nm) are measured using BMG Pherastar. The ratio between intensities at two wavelengths is calculated and plotted against the compound concentration and the data is fitted to a one-site competition model to yield IC50 of the compound.

[2] = tested on: IL-17A-induced G-CSF production in human normal keratinocyte (NHK); assay: NHK Assay: IL-17A-induced G-CSF production in human normal keratinocytes; assay type: cell-based; conditions: adult normal human keratinocytes, IL-17A 5 ng/mL, 24 h, simple average if tested more than once
Method: IL-17A acts directly on keratinocytes through binding to dimeric receptor IL-17RA/RC and drives the production of a number of inflammatory mediators known to be elevated in psoriasis lesional tissue. IL-17A small molecule inhibitors that block the IL-17A to interact with IL-17R would inhibit the IL-17A signaling in its targeted cells such as keratinocytes. The compound functional activity is evaluated for its impact on IL-17A-induced G-CSF production in human normal keratinocyte (NHK).
Adult normal human keratinocytes are cultured in keratinocyte growth medium (Lonza) in a flask till reaching ˜ 90% confluence, then cells are transferred to a 384-well plate at density of 3000-4000 cell/well. Recombinant human IL-17A (Gibco PHC9174) is pre-incubated with titrated compound or DMSO for 1 h at rt then added to the cell culture plate. The final concentration of IL-17A is 5 ng/mL and DMSO is 0.2%, in the culture containing 5% FBS. Cells are cultured/treated for 24 h at 37° C. Supernatants are collected and G-CSF production is measured through HTRF technology using Human G-CSF Kit (CisBio). G-CSF concentration was extrapolated from the standard curve and IC50 is determined using GraphPad Prism. Cell viability is also evaluated using CellTiter-Glo kit (Promega) and effect of compound on cell viability is compared to DMSO control.

Sequence of UniProt Q16552 (Q16552 with tags, fused parts or gaps K93Q): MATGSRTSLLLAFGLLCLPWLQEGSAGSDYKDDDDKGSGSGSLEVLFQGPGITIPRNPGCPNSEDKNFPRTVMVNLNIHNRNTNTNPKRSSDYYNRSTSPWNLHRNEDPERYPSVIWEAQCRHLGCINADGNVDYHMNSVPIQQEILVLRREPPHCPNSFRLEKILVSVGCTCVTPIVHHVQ

| Compound | IC50 [1] [nM] | IC50 [2] [nM] | IC50 ([2]; Homo sapiens, Keratinocyte) [nM] |
| --- | --- | --- | --- |
| Cc1nocc1C(=O)N[C@H](c1cn2ncc([C@H](NC(=O)CC(C)C(F)(F)F)C3CC3)cc2n1)C1CCC(F)(F)CC1 (single isomer, unassigned) [Example 124, N—((S)-(7-((R)-Cyclopropyl((S*)-4,4,4-trifluoro-3-methylbutanamido)methyl)imidazo[1,2-b]pyridazin-2-yl)(4,4-difluorocyclohexyl)methyl)-3-methylisoxazole-4-carboxamide] | 110 | 690 | – |
| Cn1nccc1C(=O)N[C@H](c1cn2ncc(C(NC(=O)CC3CC(F)(F)C3)C3CC3)cc2n1)C1CCC(F)(F)CC1 (single isomer, unassigned) [Example 24, N—((S)-(7-((R*)-Cyclopropyl(2-(3,3-difluorocyclobutyl)acetamido)methyl)imidazo[1,2-b]pyridazin-2-yl)(4,4-difluorocyclohexyl)methyl)-1-methyl-1H-pyrazole-5-carboxamide] | 63 | – | 84 |
| O=C(CCC(F)(F)F)N[C@@H](c1cnn2cc([C@@H](NC(=O)c3cncc(N4CCCC4=O)c3)C3CCC(F)(F)CC3)nc2c1)C1CC1 [Example 176, N—((S)-(7-((R)-Cyclopropyl(4,4,4-trifluorobutanamido)methyl)imidazo[1,2-b]pyridazin-2-yl)(4,4-difluorocyclohexyl)methyl)-5-(2-oxopyrrolidin-1-yl)nicotinamide] | 110 | – | 420 |
| Cc1nocc1C(=O)N[C@H](c1cn2ncc([C@H](NC(=O)CC(C)C(F)(F)F)C3CC3)cc2n1)C1CCC(F)(F)CC1 (single isomer, unassigned) [Example 123, N—((S)-(7-((R)-Cyclopropyl((R*)-4,4,4-trifluoro-3-methylbutanamido)methyl)imidazo[1,2-b]pyridazin-2-yl)(4,4-difluorocyclohexyl)methyl)-3-methylisoxazole-4-carboxamide] | 55 | 130 | – |
| COCC(NC(=O)CC1CC(F)(F)C1)c1cnn2cc([C@H](COC(C)(C)C(F)(F)F)NC(=O)c3nonc3C3CC3)nc2c1 (single isomer, unassigned) [Example 538, 4-Cyclopropyl-N—((R)-1-(7-((S*)-1-(2-(3,3-difluorocyclobutyl)acetamido)-2-methoxyethyl)imidazo[1,2-b]pyridazin-2-yl)-2-((1,1,1-trifluoro-2-methylpropan-2-yl)oxy)ethyl)-1,2,5-oxadiazole-3-carboxamide] | 24 | – | 80 |
| O=C(CCC(F)(F)F)NC(c1cnn2cc([C@@H](NC(=O)c3cnnn3CCC(F)(F)F)C3CCC(F)(F)CC3)nc2c1)C1CC1 (single isomer, unassigned) [Example 71, N—((S)-(7-((R*)-Cyclopropyl(4,4,4-trifluorobutanamido)methyl)imidazo[1,2-b]pyridazin-2-yl)(4,4-difluorocyclohexyl)methyl)-1-(3,3,3-trifluoropropyl)-1H-1,2,3-triazole-5-carboxamide] | 100 | – | 180 |
| Cc1nonc1C(=O)N[C@H](c1cn2ncc([C@H](NC(=O)CC3CCCC3(F)F)C3CC3)cc2n1)C1CCC(F)(F)CC1 (stereo partly drawn) [Example 291, N-((1S)-(7-((1R)-Cyclopropyl(2-(2,2-difluorocyclopentyl)acetamido)methyl)imidazo[1,2-b]pyridazin-2-yl)(4,4-difluorocyclohexyl)methyl)-4-methyl-1,2,5-oxadiazole-3-carboxamide] | 370 | – | 4000 |
| O=C(CC1CC(F)(F)C1)N[C@@H](c1cnn2cc([C@@H](NC(=O)c3nonc3N3CCC3)C3CCC(F)(F)CC3)nc2c1)C1CC1 [Example 386, 4-(Azetidin-1-yl)-N—((S)-(7-((R)-cyclopropyl(2-(3,3-difluorocyclobutyl)acetamido)methyl)imidazo[1,2-b]pyridazin-2-yl)(4,4-difluorocyclohexyl)methyl)-1,2,5-oxadiazole-3-carboxamide] | 69 | – | 230 |
| CC(C)n1nccc1C(=O)N[C@H](c1cn2ncc([C@H](NC(=O)CCC3CC3(F)F)C3CC3)cc2n1)C1CCC(F)(F)CC1 (single isomer, unassigned) [Example 270, N—((S)-(7-((R)-Cyclopropyl(3-((R*)-2,2-difluorocyclopropyl)propanamido)methyl)imidazo[1,2-b]pyridazin-2-yl)(4,4-difluorocyclohexyl)methyl)-1-isopropyl-1H-pyrazole-5-carboxamide] | 150 | – | 38 |

Continued by falling IC50 [1], values first:

| IC50 [1] [nM] | Compound | IC50 [2] [nM] | IC50 ([2]; Homo sapiens, Keratinocyte) [nM] |
| --- | --- | --- | --- |
| 220 | [2H]C([2H])([2H])C([2H])([2H])n1nccc1C(=O)N[C@H](c1cn2ncc(C(COCC)NC(=O)CC3CC(F)(F)C3)cc2n1)C1CCC(F)(F)CC1 (single isomer, unassigned) [Example 531, N—((S)-(7-((S*)-1-(2-(3,3-Difluorocyclobutyl)acetamido)-2-ethoxyethyl)imidazo[1,2-b]pyridazin-2-yl)(4,4-difluorocyclohexyl)methyl)-1-(ethyl-d5)-1H-pyrazole-5-carboxamide] | 110 | – |
| 180 | CC(C)n1nccc1C(=O)N[C@H](c1cn2ncc([C@H](NC(=O)CC3CC(F)(F)C3)C3CC3)cc2n1)[C@@H]1C[C@@H]2[C@H](C1)C2(F)F (relative stereo) [Example 404, N—((S*)-(7-((R)-Cyclopropyl(2-(3,3-difluorocyclobutyl)acetamido)methyl)imidazo[1,2-b]pyridazin-2-yl)((1R,3s,5S)-6,6-difluorobicyclo[3.1.0]hexan-3-yl)methyl)-1-isopropyl-1H-pyrazole-5-carboxamide] | – | 58 |
| 130 | O=C(CCC(F)(F)F)N[C@@H](c1cnn2cc([C@@H](NC(=O)c3cccc(OCC4CC4)c3)C3CCC(F)(F)CC3)nc2c1)C1CC1 [Example 180, N—((S)-(7-((R)-Cyclopropyl(4,4,4-trifluorobutanamido)methyl)imidazo[1,2-b]pyridazin-2-yl)(4,4-difluorocyclohexyl)methyl)-3-(cyclopropylmethoxy)benzamide] | – | 450 |
| 110 | CC(C)n1nccc1C(=O)N[C@H](c1cn2ncc([C@H](NC(=O)COC3CC3)C3CC3)cc2n1)C1CCC(F)(F)CC1 [Example 307, N—((S)-(7-((R)-(2-Cyclopropoxyacetamido)(cyclopropyl)methyl)imidazo[1,2-b]pyridazin-2-yl)(4,4-difluorocyclohexyl)methyl)-1-isopropyl-1H-pyrazole-5-carboxamide] | – | 420 |
| 63 | O=C(CCC(F)(F)F)N[C@@H](c1cnn2cc([C@@H](NC(=O)c3cnnn3CC3CC3)C3CCC(F)(F)CC3)nc2c1)C1CC1 [Example 48, N—((S)-(7-((R)-Cyclopropyl(4,4,4-trifluorobutanamido)methyl)imidazo[1,2-b]pyridazin-2-yl)(4,4-difluorocyclohexyl)methyl)-1-(cyclopropylmethyl)-1H-1,2,3-triazole-5-carboxamide] | – | 160 |
| 49 | O=C(CC1CC(F)(F)C1)N[C@@H](c1cnn2cc([C@@H](NC(=O)c3nonc3C3CC3)C3CCC(F)(F)CC3)nc2c1)C1CCOCC1 (relative stereo) [Example 536, 4-Cyclopropyl-N—((S)-(7-((R*)-1-(2-(3,3-difluorocyclobutyl)acetamido)(tetrahydro-2H-pyran-4-yl)methylimidazo[1,2-b]pyridazin-2-yl)(4,4-difluorocyclohexyl)methyl)-1,2,5-oxadiazole-3-carboxamide] | – | 12 |
